From patent US12279618B2, “Use of dihydroporphin derived from chlorophyll as plant growth regulator” (Anqing Better Bioengineering Co., Ltd, priority 2019, dated 2025) come the findings set out here.

Assay type in all cases: in vivo
Experiment [1] concerns corn seeds. Kind of experiment: Corn seed germination experiment (seed soaking method, NYT 2061.1-2011). The note with it: seed soaking. The text has this:
Test Method: Ministerial Standard NYT 2061.1-2011, Seed Soaking Method
Test samples: crude chlorin, and dihydroporphin monomers including chlorin fG, chlorin e6, pheophorbide, pyropheophorbide, chlorin e4, purpurin-7, purpurin-18, chlorin p6, 15-formyl rhodochlorin, 15-oxymethyl rhodochlorin, 15-oxymethyl rhodochlorin lactone A, 15-hydroxymethyl rhodochlorin, and 15-hydroxymethyl rhodochlorin lactone B, and pure water and iron chlorin e6 (China Pesticide Registration Certificate Number: PD20190031) were used as blank and positive control.
10 mg of each sample was weighed and put into a 10 ml volumetric flask, dissolved with DMSO, and diluted to volume after being dissolved completely. 1 ml of each diluted monomer solution was put into a 50-1000 ml volumetric flask, added with water, blended and diluted to volume so as to prepare a solution with a concentration of 2 ppm, 0.2 ppm, or 0.02 ppm.
The method was substantially the same as that in Example 2, except that the test samples were monomer chlorin e6 and control monomer chlorin e6 iron (III), both at a concentration of 0.02 ppm and the test seeds were corn, soybean, rice and wheat seeds. The preparation method of the control monomer was conducted by referring to CN102273467B.

Experiment [2] has as its system soybean seeds. As to the kind of experiment: Soybean seed germination experiment (seed soaking method). The note with it: soybean seeds. As for the experimental part:
(§1) Test Method: Ministerial Standard NYT 2061.1-2011, Seed Soaking Method 10 mg of each sample was weighed and put into a 10 ml volumetric flask, dissolved with DMSO, and diluted to volume after being dissolved completely. 1 ml of each diluted monomer solution was put into a 50-1000 ml volumetric flask, added with water, blended and diluted to volume so as to prepare a solution with a concentration of 2 ppm, 0.2 ppm, or 0.02 ppm. The method was substantially the same as that in Example 1 except that soybean seeds were used as the crop seeds, and the samples were crude chlorin, pyropheophorbide, chlorin f, chlorin e6, chlorin e4, purpurin-18, 15-oxymethyl rhodochlorin lactone, and 15-hydroxymethyl rhodochlorin lactone. The method was substantially the same as that in Example 2, except that the test samples were monomer chlorin e6 and control monomer chlorin e6 iron (III), both at a concentration of 0.02 ppm and the test seeds were corn, soybean, rice and wheat seeds. The preparation method of the control monomer was conducted by referring to CN102273467B.

Experiment [3] has as its system rice seeds. Kind of experiment: Rice seed germination experiment (seed soaking method). As for the experimental part: as §1, with “Example 2” for “Example 1”, “that rice” for “that soybean”, “crop seeds.” for “crop seeds, and the samples were crude chlorin, pyropheophorbide, chlorin f, chlorin e6, chlorin e4, purpurin-18, 15-oxymethyl rhodochlorin lactone, and 15-hydroxymethyl rhodochlorin lactone.”

The subject of experiment [4] is wheat seeds. As to the kind of experiment: Wheat seed germination experiment (seed soaking method). On the procedure:
as §1, with “Example 2” for “Example 1”, “that wheat” for “that soybean”, “crop seeds.” for “crop seeds, and the samples were crude chlorin, pyropheophorbide, chlorin f, chlorin e6, chlorin e4, purpurin-18, 15-oxymethyl rhodochlorin lactone, and 15-hydroxymethyl rhodochlorin lactone.”

Experiment [5] relates to soybean seeds. Kind of experiment: Soybean seed germination experiment (seed soaking method). The settings on record: 0.2 ppm sample solution.

Regarding iron chlorin e6 [reference compound], the Germination rate % was determined as 53% in experiment [1] (0.02 ppm sample solution); 57% in experiment [1] (0.2 ppm sample solution); 64% in experiment [1] (2 ppm sample solution); 60% in experiment [2] (0.02 ppm sample solution); 66% in experiment [2] (0.2 ppm sample solution); 56% in experiment [2] (2 ppm sample solution). Besides, the Germination rate % is on record as 78% in experiment [3] (0.02 ppm sample solution); “best germination effect” in experiment [3] (0.02 ppm sample solution, listed as iron chlorin e6); 76% in experiment [3] (0.2 ppm sample solution); 74% in experiment [3] (2 ppm sample solution); “best germination effect” in experiment [3] (2 ppm sample solution, listed as iron chlorin e6); 90% in experiment [4] (0.02 ppm sample solution). The Germination rate % in experiment [4] (0.2 ppm sample solution) was 88%; in experiment [4] (2 ppm sample solution), 86%; in experiment [5], “most ideal germination effect”.
In the case of chlorin f, the Germination rate % in experiment [1] (0.02 ppm sample solution) came out at 55%; in experiment [1] (0.2 ppm sample solution) it was 66%; in experiment [1] (2 ppm sample solution) it was 58%; in experiment [2] (0.02 ppm sample solution), 66%; in experiment [2] (0.2 ppm sample solution) it was 54%; in experiment [2] (2 ppm sample solution), 62%. For the same substance, the Germination rate % result in experiment [2] (2 ppm sample solution, listed as chlorin f) is reported as “better germination effects than the positive control”; in experiment [3] (0.02 ppm sample solution) it was 76%; in experiment [3] (0.2 ppm sample solution), 72%; in experiment [3] (2 ppm sample solution), 66%; in experiment [4] (0.02 ppm sample solution), 94%; in experiment [4] (0.02 ppm sample solution, listed as chlorin f) it was “best germination effect”. The Germination rate % in experiment [4] (0.2 ppm sample solution) is listed as 88%; in experiment [4] (2 ppm sample solution) it was 92%.
